Assay results as given in patent US10168342B2, “Lipid probes and uses thereof” (THE SCRIPPS RESEARCH INSTITUTE, priority 2015, dated 2019).
Where two headings read alike, the source gives them in different places.

Experiments:
[1] = molecular target: T1, AEA-DA lipid probe targets in Neuro2a cells (Mus musculus, UniProt Q07646)
T1 sequence (Q07646 1-335): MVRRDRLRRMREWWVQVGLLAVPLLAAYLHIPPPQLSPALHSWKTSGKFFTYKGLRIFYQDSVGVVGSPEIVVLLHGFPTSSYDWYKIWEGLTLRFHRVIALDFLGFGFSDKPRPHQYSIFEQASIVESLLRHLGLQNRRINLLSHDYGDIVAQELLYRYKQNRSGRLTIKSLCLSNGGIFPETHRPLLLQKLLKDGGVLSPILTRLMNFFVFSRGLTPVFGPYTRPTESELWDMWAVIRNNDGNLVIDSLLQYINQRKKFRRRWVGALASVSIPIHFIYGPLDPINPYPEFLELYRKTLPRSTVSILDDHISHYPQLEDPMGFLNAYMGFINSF

[2] = molecular target: T2, AEA-DA lipid probe targets in Neuro2a cells (Mus musculus, UniProt Q61753)
T2 sequence (Q61753 1-533): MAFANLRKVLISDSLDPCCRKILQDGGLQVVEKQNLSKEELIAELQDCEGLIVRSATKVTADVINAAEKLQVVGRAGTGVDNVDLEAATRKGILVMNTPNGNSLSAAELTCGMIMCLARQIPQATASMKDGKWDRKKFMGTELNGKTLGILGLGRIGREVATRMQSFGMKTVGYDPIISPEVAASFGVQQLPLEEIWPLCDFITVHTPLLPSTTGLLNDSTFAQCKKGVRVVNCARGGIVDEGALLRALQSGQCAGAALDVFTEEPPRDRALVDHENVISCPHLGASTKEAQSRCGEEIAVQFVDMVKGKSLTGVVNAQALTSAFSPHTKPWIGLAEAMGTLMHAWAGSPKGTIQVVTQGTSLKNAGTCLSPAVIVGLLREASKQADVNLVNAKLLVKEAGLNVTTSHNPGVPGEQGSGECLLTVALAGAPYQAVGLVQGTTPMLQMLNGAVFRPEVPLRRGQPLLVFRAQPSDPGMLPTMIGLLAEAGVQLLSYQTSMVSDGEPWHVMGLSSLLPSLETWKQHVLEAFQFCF

[3] = molecular target: T3, AEA-DA lipid probe targets in Neuro2a cells (Mus musculus, UniProt Q60605)
T3 sequence (Q60605 1-151): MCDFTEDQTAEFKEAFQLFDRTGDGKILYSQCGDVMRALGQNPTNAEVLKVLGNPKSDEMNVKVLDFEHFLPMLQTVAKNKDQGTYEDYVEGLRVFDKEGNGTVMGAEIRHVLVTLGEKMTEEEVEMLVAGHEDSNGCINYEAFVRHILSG

[4] = molecular target: AEA-DA lipid probe targets in Neuro2a cells (Mus musculus, UniProt O35129)
[5] = molecular target: T4, AEA-DA lipid probe targets in Neuro2a cells (Mus musculus, UniProt Q791V5)
T4 sequence (Q791V5 1-303): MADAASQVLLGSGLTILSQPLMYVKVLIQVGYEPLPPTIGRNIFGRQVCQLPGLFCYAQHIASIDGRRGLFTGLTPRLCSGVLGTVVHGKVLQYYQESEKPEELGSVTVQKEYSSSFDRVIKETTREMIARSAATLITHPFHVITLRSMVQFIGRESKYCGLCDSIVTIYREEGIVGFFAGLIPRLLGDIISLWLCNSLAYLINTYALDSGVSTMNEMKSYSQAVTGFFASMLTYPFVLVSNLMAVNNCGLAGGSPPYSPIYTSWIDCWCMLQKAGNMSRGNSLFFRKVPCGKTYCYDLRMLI

[6] = molecular target: T5, AEA-DA lipid probe targets in Neuro2a cells (Mus musculus, UniProt Q6GV12)
T5 sequence (Q6GV12 26-332): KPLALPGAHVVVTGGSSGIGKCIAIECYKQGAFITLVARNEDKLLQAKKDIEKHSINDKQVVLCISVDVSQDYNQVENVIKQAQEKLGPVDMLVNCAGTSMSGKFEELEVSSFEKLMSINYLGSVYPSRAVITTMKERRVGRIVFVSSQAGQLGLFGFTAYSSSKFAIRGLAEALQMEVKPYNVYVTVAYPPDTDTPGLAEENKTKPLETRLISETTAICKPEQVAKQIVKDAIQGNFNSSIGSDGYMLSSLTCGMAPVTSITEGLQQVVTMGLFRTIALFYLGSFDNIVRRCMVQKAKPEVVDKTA

[7] = molecular target: AEA-DA lipid probe targets in Neuro2a cells (Mus musculus, UniProt Q9EPE9)
[8] = molecular target: AEA-DA lipid probe targets in Neuro2a cells (Mus musculus, UniProt Q9CQ45)
[9] = molecular target: T6, AEA-DA lipid probe targets in Neuro2a cells (Mus musculus, UniProt Q9DBL9)
T6 sequence (Q9DBL9 1-351): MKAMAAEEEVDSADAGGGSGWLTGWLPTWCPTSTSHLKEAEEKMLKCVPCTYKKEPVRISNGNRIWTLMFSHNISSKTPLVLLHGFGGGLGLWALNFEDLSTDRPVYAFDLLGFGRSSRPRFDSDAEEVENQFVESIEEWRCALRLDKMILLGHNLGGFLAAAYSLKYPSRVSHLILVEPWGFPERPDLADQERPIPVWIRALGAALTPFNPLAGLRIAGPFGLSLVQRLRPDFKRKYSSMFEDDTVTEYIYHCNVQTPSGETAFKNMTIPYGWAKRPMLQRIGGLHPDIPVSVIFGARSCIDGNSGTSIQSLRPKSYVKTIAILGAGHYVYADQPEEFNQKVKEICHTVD

Sequence of AEA-DA lipid probe targets in Neuro2a cells (Mus musculus, UniProt O35129) (O35129 whole entry): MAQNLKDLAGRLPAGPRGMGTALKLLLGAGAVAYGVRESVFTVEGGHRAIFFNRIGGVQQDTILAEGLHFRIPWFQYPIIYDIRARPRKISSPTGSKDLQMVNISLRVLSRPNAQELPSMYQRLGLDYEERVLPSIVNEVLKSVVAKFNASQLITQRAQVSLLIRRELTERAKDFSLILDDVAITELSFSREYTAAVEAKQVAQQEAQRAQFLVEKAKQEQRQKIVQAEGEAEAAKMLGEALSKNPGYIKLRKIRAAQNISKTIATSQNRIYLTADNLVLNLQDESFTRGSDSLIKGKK
Sequence of AEA-DA lipid probe targets in Neuro2a cells (Mus musculus, UniProt Q9EPE9) (Q9EPE9 whole entry): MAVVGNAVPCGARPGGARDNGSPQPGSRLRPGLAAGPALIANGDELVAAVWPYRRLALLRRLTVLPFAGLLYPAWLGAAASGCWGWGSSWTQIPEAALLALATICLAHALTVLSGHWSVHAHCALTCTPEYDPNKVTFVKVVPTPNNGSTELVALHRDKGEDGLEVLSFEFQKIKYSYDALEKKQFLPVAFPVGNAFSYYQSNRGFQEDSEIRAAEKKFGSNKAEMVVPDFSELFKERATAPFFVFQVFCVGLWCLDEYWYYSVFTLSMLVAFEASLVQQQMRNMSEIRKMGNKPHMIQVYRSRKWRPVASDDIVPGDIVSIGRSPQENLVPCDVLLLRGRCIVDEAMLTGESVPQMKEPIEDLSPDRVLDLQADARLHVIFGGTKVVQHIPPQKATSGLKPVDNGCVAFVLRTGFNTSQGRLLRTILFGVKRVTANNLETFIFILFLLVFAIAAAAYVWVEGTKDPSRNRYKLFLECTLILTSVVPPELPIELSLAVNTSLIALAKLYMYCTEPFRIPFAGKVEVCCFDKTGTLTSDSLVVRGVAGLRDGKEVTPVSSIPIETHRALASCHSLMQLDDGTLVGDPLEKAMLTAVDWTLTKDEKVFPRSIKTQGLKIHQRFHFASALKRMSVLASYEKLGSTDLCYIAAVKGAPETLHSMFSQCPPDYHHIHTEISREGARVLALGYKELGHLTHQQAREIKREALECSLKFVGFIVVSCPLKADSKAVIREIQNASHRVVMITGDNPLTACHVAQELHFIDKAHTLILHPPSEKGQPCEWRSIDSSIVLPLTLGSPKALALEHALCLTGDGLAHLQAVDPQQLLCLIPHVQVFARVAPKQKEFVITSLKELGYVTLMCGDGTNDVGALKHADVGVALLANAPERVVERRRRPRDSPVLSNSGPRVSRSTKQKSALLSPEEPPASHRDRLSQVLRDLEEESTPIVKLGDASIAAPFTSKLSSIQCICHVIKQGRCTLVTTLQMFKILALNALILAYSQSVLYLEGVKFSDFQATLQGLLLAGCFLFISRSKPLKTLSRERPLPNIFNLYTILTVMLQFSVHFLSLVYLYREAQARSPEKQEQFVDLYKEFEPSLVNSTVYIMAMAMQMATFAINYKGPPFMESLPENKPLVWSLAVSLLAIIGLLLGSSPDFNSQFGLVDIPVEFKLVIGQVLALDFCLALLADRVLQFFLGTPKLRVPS
Sequence of AEA-DA lipid probe targets in Neuro2a cells (Mus musculus, UniProt Q9CQ45) (Q9CQ45 31-171): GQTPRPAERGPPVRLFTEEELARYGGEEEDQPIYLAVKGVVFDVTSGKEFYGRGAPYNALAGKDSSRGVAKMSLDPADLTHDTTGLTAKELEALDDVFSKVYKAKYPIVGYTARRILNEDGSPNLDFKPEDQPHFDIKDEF

CCCCC/C=C\C/C=C\C/C=C\C/C=C\CCCC(=O)NCCO [AEA, anandamide, reference compound]
SILAC ratio Mest ([1]; competitor 200 μM): 1.5
SILAC ratio Phgdh ([2]; competitor 200 μM): 1.2
SILAC ratio Myl6 ([3]; competitor 200 μM): 1.0
SILAC ratio Phb2 ([4]; competitor 200 μM): 1.2
SILAC ratio Mtch2 ([5]; competitor 200 μM): 1.5
SILAC ratio, Kdsr ([6]; competitor 200 μM): 3.6
SILAC ratio Atp13a1 ([7]; competitor 200 μM): 1.4
SILAC ratio, Nenf ([8]; competitor 200 μM): 1.4
SILAC ratio, Abhd5 ([9]; competitor 200 μM): 1.3

C=CCN(C)CCCCCCOc1ccc(C(=O)c2ccc(Br)cc2)c(F)c1 [Ro 48-8071, reference compound]
SILAC ratio Mest ([1]; competitor 25 μM): 1.2
SILAC ratio Phgdh ([2]; competitor 25 μM): 1.0
SILAC ratio Myl6 ([3]; competitor 25 μM): 0.7
SILAC ratio Phb2 ([4]; competitor 25 μM): 0.9
SILAC ratio Mtch2 ([5]; competitor 25 μM): 0.9
SILAC ratio, Kdsr ([6]; competitor 25 μM): 1.6
SILAC ratio Atp13a1 ([7]; competitor 25 μM): 1.2
SILAC ratio, Nenf ([8]; competitor 25 μM): 0.9
SILAC ratio, Abhd5 ([9]; competitor 25 μM): 1.4

CN1CCN(C(=O)c2c(-c3ccccc3)c3cc([N+](=O)[O-])ccc3n2C)CC1 [KML110, (1-Methyl-5-nitro-3-phenyl-1H-indol-2-yl)(4-methylpiperazin-1-yl)methanone]
SILAC ratio Mest ([1]; competitor 25 μM): 1.3
SILAC ratio Phgdh ([2]; competitor 25 μM): 1.5
SILAC ratio Myl6 ([3]; competitor 25 μM): 1.4
SILAC ratio Phb2 ([4]; competitor 25 μM): 1.3
SILAC ratio Mtch2 ([5]; competitor 25 μM): 1.3
SILAC ratio, Kdsr ([6]; competitor 25 μM): 1.6
SILAC ratio Atp13a1 ([7]; competitor 25 μM): 1.7
SILAC ratio, Nenf ([8]; competitor 25 μM): 1.7
SILAC ratio, Abhd5 ([9]; competitor 25 μM): 2.0

O=C(/C=C/c1cccnc1)NCCCCC1CCN(C(=O)c2ccccc2)CC1 [FK-866, reference compound]
SILAC ratio Mest ([1]; competitor 25 μM): 1.2
SILAC ratio Phgdh ([2]; competitor 25 μM): 1.3
SILAC ratio Myl6 ([3]; competitor 25 μM): 1.3
SILAC ratio Phb2 ([4]; competitor 25 μM): 1.1
SILAC ratio Mtch2 ([5]; competitor 25 μM): 1.1
SILAC ratio, Kdsr ([6]; competitor 25 μM): 1.1
SILAC ratio Atp13a1 ([7]; competitor 25 μM): 1.1
SILAC ratio, Nenf ([8]; competitor 25 μM): 2.6
SILAC ratio, Abhd5 ([9]; competitor 25 μM): 1.0

CN1CCN(C(=O)c2[nH]c3ccc([N+](=O)[O-])cc3c2-c2ccccc2)CC1 [MJN228, (4-Methylpiperazin-1-yl)(5-nitro-3-phenyl-1H-indol-2-yl)methanone]
SILAC ratio Mest ([1]; competitor 10 μM): 1.2
SILAC ratio Mest ([1]; competitor 25 μM): 1.4
SILAC ratio Mest ([1]; competitor 50 μM): 1.3
SILAC ratio Mest ([1]; competitor 100 μM): 1.6
SILAC ratio Phgdh ([2]; competitor 10 μM): 1.2
SILAC ratio Phgdh ([2]; competitor 25 μM): 1.1
SILAC ratio Phgdh ([2]; competitor 50 μM): 0.9
SILAC ratio Phgdh ([2]; competitor 100 μM): 1.1
SILAC ratio Myl6 ([3]; competitor 10 μM): 1.1
SILAC ratio Myl6 ([3]; competitor 25 μM): 1.0
SILAC ratio Myl6 ([3]; competitor 50 μM): 1.3
SILAC ratio Phb2 ([4]; competitor 10 μM): 1.3
SILAC ratio Phb2 ([4]; competitor 25 μM): 1.2
SILAC ratio Phb2 ([4]; competitor 50 μM): 1.4
SILAC ratio Phb2 ([4]; competitor 100 μM): 1.5
SILAC ratio Mtch2 ([5]; competitor 10 μM): 1.2
SILAC ratio Mtch2 ([5]; competitor 25 μM): 1.3
SILAC ratio Mtch2 ([5]; competitor 50 μM): 1.1
SILAC ratio Mtch2 ([5]; competitor 100 μM): 1.4
SILAC ratio, Kdsr ([6]; competitor 10 μM): 1.1
SILAC ratio, Kdsr ([6]; competitor 25 μM): 1.5
SILAC ratio, Kdsr ([6]; competitor 50 μM): 1.3
SILAC ratio, Kdsr ([6]; competitor 100 μM): 1.7
SILAC ratio Atp13a1 ([7]; competitor 10 μM): 1.3
SILAC ratio Atp13a1 ([7]; competitor 25 μM): 1.7
SILAC ratio Atp13a1 ([7]; competitor 50 μM): 2.0
SILAC ratio Atp13a1 ([7]; competitor 100 μM): 2.2
SILAC ratio, Nenf ([8]; competitor 10 μM): 1.3
SILAC ratio, Nenf ([8]; competitor 25 μM): 1.3
SILAC ratio, Nenf ([8]; competitor 50 μM): 1.8
SILAC ratio, Nenf ([8]; competitor 100 μM): 1.7
SILAC ratio, Abhd5 ([9]; competitor 10 μM): 1.6
SILAC ratio, Abhd5 ([9]; competitor 25 μM): 2.2
SILAC ratio, Abhd5 ([9]; competitor 50 μM): 4.0
SILAC ratio, Abhd5 ([9]; competitor 100 μM): 14.3
